The values below come from ChEMBL document CHEMBL4665541, “Search for new therapeutic options for the uncommon pathogen Mycobacterium chimaera: an open drug discovery approach” (Lancet Microbe, 2021).

Holding throughout (type): functional, organism-based
What all share (parameters): conc 20 uM

Test [1] relates to Mycobacterium intracellulare subsp. chimaera. Put plainly: (§1) Inhibition of mycobacterial growth using the resazurin microtitre cell viability assay (REMA), compounds at final concentration of 20 µM (2% v/v DMSO). Hits were classed as compounds that inhibited bacterial growth by 70% or more compared to drug-free controls. The settings on record: NCTC13781. (In general: Resazurin is reduced to fluorescent resorufin, in cell work by metabolically active cells.)

The subject of test [2] is Mycobacterium tuberculosis. The description is as §1. The settings on record: H37Rv.
Test [3] has as its system Mycobacteroides abscessus. The description is as §1. To be noted: ATCC19977.

In the case of MMV676604, the Survival in test [1] was 104%; in test [2], 95%; in test [3] it was 119%.

For MMV676605, the Survival in test [1] was 110%; in test [2] it was 99.5%; in test [3], 122%.

On to MMV676877, for which the Survival was 106% in test [1], 90.2% in test [2] and 107% in test [3].

MMV676881: the Survival in test [1] was 101%; in test [2], 98.9%; in test [3], 99.4%.

Take MMV687138: the Survival was 104% in test [1], 56.3% in test [2] and 102% in test [3].

Regarding MMV687145, the Survival is 130% in test [1], 42.6% in test [2] and 108% in test [3].

With MMV687146, the Survival was 4.5% in test [1], 77.5% in test [2] and 17.2% in test [3].

Regarding MMV687170, the results for the Survival in test [1], in test [2] and in test [3] were 89.9%, 52.7% and 114%, respectively.

As for MMV687172, the Survival in test [1] was 101%; in test [2], 129%; in test [3], 98.3%.

Turning to MMV687180, the Survival was 105% in test [1], 74.6% in test [2] and 107% in test [3].

Consider MMV687188, for which the values for the Survival in test [1], in test [2] and in test [3] were 73.5%, 43.4% and 110%, respectively.

On to MMV687189, for which the Survival was 98.5% in test [1], 58.1% in test [2] and 104% in test [3].

Take MMV687239: the Survival is 97.5% in test [1], 68.1% in test [2] and 108% in test [3].

As to MMV687243, the Survival in test [1] was 106%; in test [2] it was 87.1%; in test [3] it was 113%.

As to MMV687246, the values for the Survival in test [1], in test [2] and in test [3] were 110%, 90.9% and 119%, respectively.

MMV687248: the results for the Survival in test [1], in test [2] and in test [3] were 110%, 31.8% and 110%, respectively.

In the case of MMV687251, the Survival in test [1] was 88.3%; in test [2], 5.28%; in test [3], 116%.

As for MMV687254, the Survival in test [1] was 107%; in test [2] it was 106%; in test [3] it was 113%.

Turning to MMV687273, the Survival in test [1] was 110%; in test [2] it was 31.5%; in test [3], 111%.

Take MMV687696: the values for the Survival in test [1], in test [2] and in test [3] were 75.7%, 44.7% and 109%, respectively.

Regarding MMV687699, the Survival in test [1] was 93.8%; in test [2], 53.6%; in test [3], 114%.

On to MMV687700, for which the Survival in test [1] was 88%; in test [2] it was 84.1%; in test [3], 107%.

For MMV687703, the Survival in test [1] is 3.71%; in test [2] it was 4.55%; in test [3] it was 105%.

With MMV687706, the Survival in test [1] is 92.7%; in test [2], 99.8%; in test [3] it was 108%.

In the case of MMV687729, the Survival is 30.5% in test [1], 13.1% in test [2] and 112% in test [3].

Take MMV687730: the Survival is 87.3% in test [1], 71.2% in test [2] and 18.8% in test [3].

For the substance MMV687747, the Survival in test [1] was 90.2%; in test [2], 63.6%; in test [3], 108%.

Consider MMV687749, for which the results for the Survival in test [1], in test [2] and in test [3] were 96.9%, 73.3% and 113%, respectively.

In the case of MMV687762, the Survival was 101% in test [1], 95.8% in test [2] and 112% in test [3].

Regarding MMV687765, the values for the Survival in test [1], in test [2] and in test [3] were 59%, 26.4% and 116%, respectively.

For the substance MMV687775, the figures for the Survival in test [1], in test [2] and in test [3] were 98.2%, 91% and 122%, respectively.

Consider MMV687776, for which the Survival in test [1] was 99.3%; in test [2], 90.5%; in test [3], 124%.

MMV687794: the Survival in test [1] was 99.9%; in test [2], 90.9%; in test [3], 109%.

With MMV687796, the Survival was 102% in test [1], 9.75% in test [2] and 99% in test [3].

Turning to MMV687798, the results for the Survival in test [1], in test [2] and in test [3] were 1.47%, 7.23% and 11.5%, respectively.

On to MMV687800, for which the Survival in test [1] is 6.51%; in test [2] it was 6.34%; in test [3], 109%.

For MMV687801, the Survival in test [1] was 31.5%; in test [2], 58.9%; in test [3] it was 114%.

MMV687803: the Survival is 10.8% in test [1], 17.4% in test [2] and 24.5% in test [3].

For the substance MMV687807, the figures for the Survival in test [1], in test [2] and in test [3] were 82.9%, 4.61% and 103%, respectively.

Take MMV687812: the results for the Survival in test [1], in test [2] and in test [3] were 41%, 26% and 26.9%, respectively.

Turning to MMV687813, the results for the Survival in test [1], in test [2] and in test [3] were 34.4%, 5.59% and 102%, respectively.

Take MMV688122: the values for the Survival in test [1], in test [2] and in test [3] were 96.7%, 2.87% and 111%, respectively.

As for MMV688124, the figures for the Survival in test [1], in test [2] and in test [3] were 107%, 94.7% and 116%, respectively.

As for MMV688125, the Survival is 107% in test [1], 13.8% in test [2] and 114% in test [3].

Take MMV688178: the Survival was 97.1% in test [1], 103% in test [2] and 107% in test [3].

With MMV688179, the Survival in test [1] was 2.34%; in test [2], 1.64%; in test [3], 17.6%.

For the substance MMV688180, the Survival in test [1] was 101%; in test [2], 94%; in test [3] it was 116%.

Consider MMV688262, for which the Survival is 113% in test [1], 8.6% in test [2] and 106% in test [3].

On to MMV688270, for which the Survival in test [1] was 98.1%; in test [2] it was 83%; in test [3], 101%.

MMV688271: the Survival is 3.73% in test [1], 1.1% in test [2] and 108% in test [3].

As for MMV688273, the Survival was 106% in test [1], 97.8% in test [2] and 100% in test [3].

Consider MMV688274, for which the Survival in test [1] was 112%; in test [2], 86%; in test [3] it was 113%.

MMV688279: the Survival was 114% in test [1], 32.5% in test [2] and 110% in test [3].

As to MMV688283, the Survival in test [1] was 112%; in test [2] it was 89.4%; in test [3], 116%.

With MMV688313, the Survival is 104% in test [1], 102% in test [2] and 94.8% in test [3].

In the case of MMV688327, the Survival in test [1] was -1.9%; in test [2], 7.39%; in test [3] it was 18.6%.

MMV688330: the Survival in test [1] is 103%; in test [2] it was 99.6%; in test [3] it was 99.9%.

In the case of MMV688345, the Survival in test [1] is 86.9%; in test [2], 86%; in test [3], 113%.

Regarding MMV688350, the Survival in test [1] is 92.5%; in test [2], 105%; in test [3], 102%.

Consider MMV688352, for which the values for the Survival in test [1], in test [2] and in test [3] were 103%, 89.6% and 107%, respectively.

In the case of MMV688360, the Survival was 94.3% in test [1], 100% in test [2] and 100% in test [3].

As to MMV688361, the Survival is 88.9% in test [1], 92.9% in test [2] and 116% in test [3].

As to MMV688362, the Survival in test [1] was 90.2%; in test [2], 103%; in test [3], 109%.

For MMV688364, the Survival in test [1] was 89.9%; in test [2], 82.7%; in test [3] it was 111%.

For the substance MMV688371, the Survival in test [1] is 107%; in test [2], 111%; in test [3] it was 119%.

Turning to MMV688372, the figures for the Survival in test [1], in test [2] and in test [3] were 112%, 88.8% and 104%, respectively.

With MMV688407, the Survival in test [1] is 106%; in test [2] it was 94%; in test [3], 116%.

Take MMV688410: the Survival in test [1] is 105%; in test [2] it was 95.3%; in test [3], 105%.

Turning to MMV688411, the Survival in test [1] is 89.9%; in test [2] it was 90%; in test [3], 114%.

Take MMV688415: the Survival was 97.2% in test [1], 88.9% in test [2] and 101% in test [3].

In the case of MMV688416, the Survival is 94.7% in test [1], 99.5% in test [2] and 103% in test [3].

With MMV688417, the Survival is 106% in test [1], 82.3% in test [2] and 104% in test [3].

Consider MMV688466, for which the Survival was 106% in test [1], 93.2% in test [2] and 115% in test [3].

Turning to MMV688467, the Survival in test [1] was 111%; in test [2] it was 95.5%; in test [3] it was 118%.

In the case of MMV688469, the Survival was 82.8% in test [1], 90.9% in test [2] and 87.3% in test [3].

With MMV688470, the Survival in test [1] is 95.7%; in test [2], 94.8%; in test [3] it was 106%.
